Reference: publication PMC12040169 (PLOS Biology, 2025)

Assay: in vitro
Conditions: human, hela cells, % viability

Row | SMILES | viability at 28.5 h, 10 µM [%]
1 | Clc1ccc(-n2ccnc2)cc1 [CBK012658] | 107
2 | CCN(CC)C(=O)C1CCCN1C(=O)c1ccnc(N(C)C)c1 (centres unmarked) [CBK305086] | 99.7
3 | CCN(CC)C(=O)C1CCCN(C(=O)NCc2ccc3c(c2)OCO3)C1 (centres unmarked) [CBK156121] | 100
4 | Cc1cccc(NCC(O)Cn2c3ccc(Br)cc3c3cc(Br)ccc32)c1 (centres unmarked) [CBK261419] | 94.5
5 | O=C(Cc1csc(-c2c(Cl)cccc2Cl)n1)NC[C@H]1CC[C@H](C(=O)O)CC1 [CBK299767] | 85.7
6 | O=C(O)CCN1CCC2(CCN(C(=O)c3cc(F)c(F)cc3F)C2)C1 (centres unmarked) [CBK137123] | 86.8
7 | O=C(C(c1ccccc1)c1ccccc1)N1CCN(c2ncccn2)CC1 [CBK144504] | 89.4
8 | CCN1CCCC1CNC(=O)C(=O)Nc1ccccc1OC (centres unmarked) [CBK266865] | 103
9 | O=C(Cn1ccnc1)NC(Cc1cccs1)c1nccs1 (centres unmarked) [CBK285092] | 93.2
10 | O=C(CSc1nncc(=O)[nH]1)NCc1ccccc1 [CBK270246] | 85.3
11 | CN1CCC(N(C)C2CCN(Cc3ccccc3)CC2)CC1 [CBK261925] | 85.8
12 | O=C(O)CCC(NC(=O)c1ccc(Cl)cc1)C(=O)O (centres unmarked) [CBK263597] | 94.2
13 | CNCCOc1ccccc1O [CBK023215C] | 99.8
14 | COc1cccc(CC(=O)Nc2nc(Cc3n[nH]c(=S)n3C)cs2)c1 [CBK296634] | 98.5
15 | Cc1ccc(-n2ncc3c(Nc4c(C)n(C)n(-c5ccccc5)c4=O)ncnc32)c(C)c1 [CBK294449] | 82.6
16 | Cc1cc2ccccc2c(=O)n1CCO [CBK015621] | 102
17 | O=C(/C=C/c1ccsc1)Nc1ccc(F)cc1 [CBK057139] | 93.9
18 | CC[C@H]1CN(S(=O)(=O)c2ccccc2)CC[C@H]1CC(=O)N(C)CC#N [CBK289140] | 108
19 | O=C(CSc1nnc(-c2ccco2)[nH]1)c1ccc(O)cc1O [CBK264392] | 108
20 | Cn1nc(C2CC2)cc1NC(=O)NCC1CCN(c2ccccc2F)C1 (centres unmarked) [CBK304380] | 85.2
21 | CC(=O)N1CCC(c2cc(-c3cccc(F)c3)n(C)n2)CC1 [CBK282097] | 101
22 | Cc1ncsc1CCOc1nc2ccccc2nc1NC(C)C [CBK115736] | 102

Row | SMILES | viability at 28.5 h, 10 µM [%]
23 | CCOc1ccc2c(c1)N1C(=O)NC(C(F)(F)F)(C(F)(F)F)N=C1S2 [CBK025440] | 85.4
24 | O=C(O)C1CCCCC1C(=O)N1CCc2ccccc2C1 (centres unmarked) [CBK286594] | 85
25 | Cc1ccc(C(=O)NC2CCN(C(=O)Nc3cc(Cl)ccc3F)CC2)s1 [CBK305243] | 88.8
26 | COc1ccc(-c2nn(-c3ccccc3)cc2/C=C2/SC(=S)N(Cc3ccccc3)C2=O)c(C)c1 [CBK265107] | 93.7
27 | N#C/C(=C\c1ccc(-c2ccc3c(c2)C(=O)NC3=O)o1)c1nc2ccccc2[nH]1 [CBK262965] | 94.4
28 | Cn1c2ccc(Br)cc2c2nnc(SCC(=O)N3c4ccccc4Sc4ccccc43)nc21 [CBK263900] | 88.7
29 | COc1cccn(CC(=O)N(C)CCc2scnc2C)c1=O [CBK306726] | 94.2
30 | CC(CCN(CCN)C(=O)N1CCC(Cn2cncn2)(C2CCCCC2)CC1)c1ccccc1 (centres unmarked) [CBK002130C] | 110
31 | Clc1ccc(Cl)c(-c2ccc(CNCCCN3CCOCC3)o2)c1 [CBK278190C] | 89.3
32 | CCCn1c(SCc2csc(CC(=O)Nc3ccccc3C)n2)n[nH]c1=O [CBK296969] | 91.1
33 | Cn1c(Cc2ccccc2)nnc1SCC(=O)Nc1ccc(N2CCOCC2)cc1 [CBK269750] | 89.8
34 | CC(NC(=O)COc1ccc(Cl)cc1Cl)C(=O)O (centres unmarked) [CBK261425] | 91.2
35 | Cc1onc(-c2ccccc2)c1CNC(=O)c1cscn1 [CBK144089] | 97.1
36 | CN(CCO)S(=O)(=O)c1ccccc1[N+](=O)[O-] [CBK261457] | 102
37 | CC1CCc2nn(CCNC(=O)Cc3cccs3)c(=O)cc2C1 (centres unmarked) [CBK284465] | 88.8
38 | COc1ccc2[nH]cc(CCNC(=O)c3ccc(NC(C)=O)cc3)c2c1 [CBK269296] | 96.6
39 | Cc1ccc(-c2cc(C(F)(F)F)n3ncc(C(=O)NCc4c(C)nn(C)c4C)c3n2)cc1 [CBK293956] | 106
40 | CN(C(=O)c1c[nH]nc1C1CCCN(Cc2cc3ccccc3o2)C1)C1CCCCC1 (centres unmarked) [CBK286492] | 102
41 | O=C1CCc2c(Cc3c(Cl)cccc3Cl)c(O)nn21 [CBK083470] | 91.3
42 | O=C(CSC1=NCCS1)Nc1ccc(Cl)cn1 [CBK057917] | 84
43 | O=[N+]([O-])c1ccc(N2CCN(S(=O)(=O)N3CCCC3)CC2)c(Cl)c1 [CBK264772] | 102
44 | CC(C)[C@@H](CO)Nc1nccnc1-c1ccc(CN)cc1 [CBK036640] | 104

Row | SMILES | viability at 28.5 h, 10 µM [%]
45 | O=C(O)COc1ccc(NC(=O)C(c2ccccc2)c2ccccc2)cc1 [CBK264250] | 99.6
46 | CCC(CO)Nc1nccnc1-c1ccsc1 (centres unmarked) [CBK036606] | 107
47 | O=C(CSc1nnc(COc2ccccc2)o1)N1CCN(c2ccccc2)CC1 [CBK267185] | 97.5
48 | CCOC(=O)c1[nH]c2ccccc2c1NC(=O)c1cc(F)cc(Cl)c1 [CBK160143] | 95.4
49 | CCCNCc1ccc(-c2nnn(CC(=O)NCc3ccc(C4CCC4)cc3)n2)cc1 [CBK167525C] | 105
50 | Cc1cnc(CNC(=O)C2(c3ccccc3)CCCC2)cn1 [CBK149531] | 101
51 | Cc1ccc(CC(=O)Nc2nc(Cc3n[nH]c(=S)n3C)cs2)cc1 [CBK296766] | 90.5
52 | O=C(O)[C@@H]1CSC(c2ccc(C(F)(F)F)cc2)N1 (some centres unmarked) [CBK286921] | 87.7
53 | CNC(=O)C1(Cc2ccccc2-c2ccccc2)CCN(C(=O)CCC2CCCC2)CC1 [CBK285696] | 89.4
54 | CC1CCC2(CC1)NC(=O)N(Cc1coc(-c3ccccc3)n1)C2=O (centres unmarked) [CBK306196] | 98.3
55 | Cn1c(SCC(=O)NC(c2ccccc2)c2ccccc2)nnc1-c1ccncc1 [CBK266622] | 97.8
56 | Cc1cccc(C2N3CCC4(CC3)c3[nH]c5ccccc5c3CCN24)n1 (centres unmarked) [CBK284435] | 90.5
57 | OC[C@H]1O[C@@H](n2cnc3cncnc32)C[C@H]1O [CBK201243] | 113
58 | O=C(c1ccccc1)N1CCCC(c2nnc(-c3cccs3)o2)C1 (centres unmarked) [CBK283059] | 103
59 | Cc1ccc2cc(CN(Cc3ccco3)C(=O)C3CCCO3)c(O)nc2c1 (centres unmarked) [CBK269300] | 103
60 | COc1ccc(OCC(=O)N/N=C\c2c(OC)ccc3ccccc23)c(Br)c1 [CBK261235] | 86.3
61 | CCn1c(SCC(=O)Nc2ccccc2[N+](=O)[O-])nnc1-c1cc(Br)ccc1O [CBK268201] | 101
62 | CC(C)(O)CCN(Cc1ccc(-c2ccc(S(C)(=O)=O)cc2)nc1)C1CCN(C(=O)OC(C)(C)C)CC1 [CBK167517] | 101
63 | COC(=O)Nc1nc(Cl)cc(Cl)n1 [CBK027433] | 93.8
64 | Cc1nnc(N2C(=O)c3oc4ccccc4c(=O)c3C2c2ccc(OCc3ccccc3)cc2)s1 (centres unmarked) [CBK266287] | 94.9
65 | CCCc1cc(C(=O)NCCCN)cc(CCC)c1OCc1ccccc1 [CBK001736C] | 114
66 | O=C(NCC1COc2ccccc2O1)c1ccc2[nH]ccc2c1 (centres unmarked) [CBK149054] | 91.2

Row | SMILES | viability at 28.5 h, 10 µM [%]
67 | Cc1c(C(=O)O)cccc1N1C(=O)c2ccc([N+](=O)[O-])cc2C1=O [CBK262724] | 99.9
68 | O=C(c1sc2ccccc2c1Cl)N1CCN(CCN2C(=O)c3cccc4cccc(c34)C2=O)CC1 [CBK262557] | 99
69 | O=C(CSC1c2ccccc2Sc2ccccc21)Nc1ccc(C(=O)O)cc1 [CBK267542] | 111
70 | Cc1cc(N2CCOCC2)ccc1NC(=O)CCOc1cccc(Cl)c1 [CBK305724] | 102
71 | CCCCOc1ccc(-c2nnn(CC(=O)NCc3ccccc3)n2)cc1 [CBK068557] | 96.8
72 | O=C1CCCc2nccc(-c3ccc(Cl)cc3)c21 [CBK287870] | 82.9
73 | O=C(O)c1ccccc1C1SCCCS1 [CBK016303] | 91.4
74 | Cc1ccc(S(=O)(=O)NCC(=O)Nc2ccc(C)cc2C(=O)c2ccccc2)cc1 [CBK265199] | 85.8
75 | O=C(CCn1c(=O)oc2ccccc21)Nc1ccc2c(c1)CN(Cc1ccccc1)C2 [CBK285946] | 120
76 | CC(NC(=O)Cn1c(-c2nonc2N)nc2ccccc21)c1ccccc1 (centres unmarked) [CBK266006] | 106
77 | Cc1nc(C)c(-c2csc(Nc3ccc(O)cc3C)n2)s1 [CBK267346] | 98.7
78 | Cc1c(/C=C2\SC(=S)NC2=O)c2ccccc2n1Cc1ccccc1Cl [CBK263946] | 101
79 | O=C1NCCN1CCOc1nccnc1-c1ccsc1 [CBK106766] | 93.4
80 | O=C(Nc1sc2c(c1C(=O)NCCc1ccccc1)CCC2)c1sc2ccccc2c1Cl [CBK266379] | 105
81 | CCN1CCN(C(=O)CCNC(=O)c2cccc(OC)c2)CC1 [CBK307580] | 96.6
82 | N#Cc1ccccc1COC(=O)c1cc(-c2ccc(/C=C/c3[nH]c(=O)[nH]c(=O)c3[N+](=O)[O-])o2)ccc1Cl [CBK268888] | 111
83 | COc1cccc(/C=C/c2nc(C#N)c(NCCCN3CCOCC3)o2)c1 [CBK269506] | 107
84 | O=C(O)CCc1nnc(S)n1Cc1ccccc1 [CBK286926] | 93.8
85 | Cc1ccc(-n2c(SCC(=O)NCc3ccccc3)nnc2-c2ccccc2O)c(C)c1 [CBK268892] | 91.5
86 | COc1ccc(-c2nnc(SCC(=O)c3ccccc3)o2)cc1 [CBK069390] | 100
87 | Cc1nc(C)n(CC2CCCN(Cc3nc4c(F)cccc4[nH]3)C2)n1 (centres unmarked) [CBK306218] | 110

Same assay, conditions: human, hela cells, % viability, bulk resorufin, single well

Row | SMILES | viability at 28.5 h, 10 µM [%]
88 | CC(C)(C)OC(=O)N1CCC2(CC1)OCc1cc(-c3ccc(S(C)(=O)=O)nc3)ccc1O2 [CBK159619] | 83.6
89 | CSc1nnc(C(N)Cc2c[nH]c3ccccc23)o1 (centres unmarked) [CBK269950C] | 89.8
